In patent US20240050359A1, “COSMETIC USES OF A HIPPOPHAE RHAMNOIDES CAKE HYDROLYSATE” (BASF Beauty Care Solutions France SAS, priority 2020, published 2024):

Experiments:
Type in all cases: cell-based
[1] = test system: fibroblasts from the papilla of human hair follicles; assay: Flow cytometry of papilla fibroblasts grown as aggregates (number, granularity, autofluorescence); conditions: capsaicin 10 μM; Control (EtOH) = 100
Description: (§1) Materials and method: A suspension composed of fibroblasts from the papilla of human hair follicles and basal culture medium, containing 0.05% v/v growth factor cocktail and the presence or absence of the H. rhamnoides hydrolyzate to be tested, was centrifuged for 5 minutes at 200×g to form aggregates. Control conditions were produced by adding 0.05% v/v growth factor cocktail (ethanol EtOH control) and adding capsaicin (10 μm) as a cell sensitizer (capsaicin control) to the basal culture medium. The aggregates were incubated at a temperature of 37° C. under controlled atmosphere (5% CO2 and 95% relative humidity). The aggregates were rinsed in buffered saline solution (PBS) and the cells were separated by incubation in a mixture of proteases (collagenase A, trypsin) with EDTA. A portion of the suspended cells was taken up in PBS for flow cytometry analysis. The cell count and autofluorescence are the two parameters measured. Autofluorescence is a direct parameter easily measured and used as a marker of cell senescence ([…] et al. 1982). The cell count is an indirect parameter of the growth potential of the hair follicle. Another portion of cells was used for analysis of the cell DNA content and ATP production rate. These two parameters were measured according to the suppliers' instructions (CyQuant NF Cell proliferation Assay Kit C35006, Invitrogen and Bioluminescence Assay Kit CLS II Roche 11699695001, Sigma-Aldrich).

[2] = test system: Human follicles; assay: Ex vivo hair shaft elongation of cultured follicles; conditions: capsaicin (10 μm)
Description: Materials and method: Human follicles were cultured ex vivo in complete growth medium containing 0.5 μg/ml insulin, and treated with capsaicin […]. The latter molecule is used as an agent causing slowing of follicle growth. A control condition without capsaicin treatment was produced. Capsaicin-sensitized follicles were treated or not with 0.03% (w/v) H. rhamnoides hydrolyzate. Each culture condition was evaluated on […] cultured in isolation (n=10). The follicles were incubated at 37° C. in the presence of 5% CO2. The culture medium was renewed three times a week for approximately 2 weeks. The elongation of the hair shafts of the cultured follicles was obtained from photographs taken on different days. The hair length was evaluated by image analysis (Image J) and presented in μm as a mean±standard error.

[3] = test system: fibroblasts from the papilla of human hair follicles; assay: ATP production by papilla fibroblasts grown as aggregates; conditions: capsaicin 10 μM
Description: as §1

[4] = test system: fibroblasts from the papilla of human hair follicles; assay: Amount of DNA in papilla fibroblasts grown as aggregates; conditions: capsaicin 10 μM
Description: as §1, with “Another portion of cells was used for analysis of the cell DNA content and ATP production rate.” left out

COc1cc(CNC(=O)CCCC/C=C/C(C)C)ccc1O [Capsaicin, capsaicin]
Autofluorescence (%) [1]: 235% | Granularity (%) [1]: 217% | Number of cells (%) [1]: 28% | hair elongation MEAN (μm) ([2]; Day 0): 0 μm | hair elongation MEAN (μm) ([2]; Day 6): 806 μm | hair elongation MEAN (μm) ([2]; Day 8): 861 μm | hair elongation MEAN (μm) ([2]; Day 11): 869 μm | hair elongation MEAN (μm) ([2]; Day 13): 938 μm | hair elongation MEAN (μm) ([2]; Day 15): 936 μm | ATP production % Activity [3]: −76% | reduction of the production of ATP relative to the control (ethanol) [3]: 76% | ATP production MEAN ([3]; EtOH control = 100): 24 | amount of DNA % deviation vs control [4]: −77% | amount of DNA MEAN ([4]; EtOH control = 100): 23
